From patent publication US11512079B2, “Heterocycle substituted pyridine derivative antifungal agents” (Amplyx Pharmaceuticals, Inc., priority 2017, dated 2022)
In brackets after ≈: the same amount, converted by molar mass.

What was measured:
Assay type in all cases: cell-based
Candida albicans 90028 = experiment: In vitro antifungal assay (Example IX), microdilution broth, MIC; conditions: minimum inhibitory concentration (≥50% inhibition), 35° C., 40-48 h, RPMI1640
Outline: (§1)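 CLSI broth microdilution in RPMI1640 with 2.5×10^3 cells/mL and final compound concentrations of 2-0.0019 μg/mL (1% DMSO). C. albicans 90028 plates were incubated at 35° C. for 40-48 h and C. neoformans H99 for 72 h. MIC was read as minimum inhibitory concentration, verified at 600 nm.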

[1] = test system: Cryptococcus neoformans H99; experiment: as above; conditions: minimum inhibitory concentration (≥50% inhibition), 35° C., 72 h, RPMI1640
Outline: as §1

[2] = test system: Aspergillus fumigatus MYA3626; experiment: In vitro antifungal assay (Example IX), microdilution broth, MEC; conditions: minimum effective concentration (shortening of hyphae), 35° C., 40-48 h, RPMI1640
Outline: (§2)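 Spore suspensions of A. fumigatus and R. pusillus adjusted to 1-2×10^4 spores/mL in RPMI1640 and exposed to compound dilutions prepared in DMSO, by broth microdilution. MEC taken as the lowest concentration shortening hyphae versus DMSO control wells, read as for echinocandins.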

[3] = test system: Rhizomucor pusillus 46342; experiment: as above; conditions: minimum effective concentration (shortening of hyphae), 35° C., 40-48 h, RPMI1640
Outline: as §2

Cryptococcus gattii = experiment: In vitro antifungal assay (Example IX), microdilution broth, MIC; conditions: minimum inhibitory concentration (≥50% inhibition), 35° C., 72 h (Cryptococcus), RPMI1640
Procedure: Preparation of Fungal Suspension. C. albicans 90028 and C. neoformans H99 strains were streaked from frozen stocks at −80° C. onto Sabouraud Dextrose Agar (SDA) plates. These were allowed to grow for 24 h (C. albicans) and 48 h (C. neoformans) at 35° C. before using them in the assay. 5-6 individual colonies were picked and diluted into sterile water to obtain a fungal suspension. The cell density of the suspension was determined and the culture diluted with RPMI1640 medium to obtain a fungal suspension of 2.5×10^3 cells/mL. The suspension was used in the MIC measurement as described below.
Preparation of Compound Stocks and Intermediate Dilutions: The compounds were weighed and DMSO was added to prepare a 10 mg/mL stock. The solutions were mixed by vortexing and sonication at 37° C. for 5-10 mins. The resulting solutions were sterile filtered using a PTFE filter, and aliquoted (12 μL or as needed) and stored at −20° C. Intermediate compound dilutions were prepared in sterile polypropylene tubes in 100% DMSO. The compound stock solution was first diluted in DMSO to obtain a concentration of […] to 0.19 μg/mL.
MIC/MEC Measurement: 99 μL 1 of the fungal suspension in RPMI1640 prepared as above was added to each well of a 96-well round bottom assay plate. 1 μL of the intermediate compound dilutions (200-0.19 μg/mL) were added to wells of the plate. This led to a 100-fold dilution of the intermediate dilutions resulting in a final compound concentration of 2-0.0019 μg/mL in the plate. 1 μL of DMSO was added to “No drug” control wells. The solutions were mixed by shaking on a plate shaker for 10 mins and plates incubated at 35° C. for 40-48 h (C. albicans, A. fumigatus, R. pusillus) and 72 h (Cryptococcus). […] This was validated by thorough mixing and reading at 600 nm on a microplate reader. The minimum concentration that led to shortening of hyphae as compared to hyphal growth in DMSO control wells was determined as the minimum effective concentration (MEC) for A. fumigatus and R. pusillus (as read for echinocandins). The use of the MIC and MEC endpoints against yeasts and molds, respectively has been described by Pfaller M A, Duncanson F, Messer S A, Moet G J, Jones R N, Castanheira M. Antimicrob Agents Chemother. 2011. 55(11):5155-8. In vitro activity of a novel broad-spectrum antifungal, E1210, tested against Aspergillus spp. determined by CLSI and EUCAST broth microdilution methods. Results are shown in Table 2, and the letters indicate the following ranges in μg/mL: […]

Row | Structure (SMILES) | MIC (Candida albicans 90028) | MIC [1] | MIC (Cryptococcus gattii) | minimal effective concentration [2] | minimal effective concentration [3]
1 | Nc1ncccc1-c1cc(Cc2ccc(OCc3cccc(F)c3)cc2)no1 [Example 138, 3-(3-(4-((3-fluorobenzyl)oxy)benzyl)isoxazol-5-yl)pyridin-2-amine] | 0.01 to 0.1 µg/mL (≈ 0.0266 to 0.266 µM) | 0.01 to 0.1 µg/mL (≈ 0.0266 to 0.266 µM) | ≤ 0.01 µg/mL | 0.01 to 0.1 µg/mL | 0.1 to 1 µg/mL
2 | Nc1ncccc1-c1cc(Cc2ccc(OCc3ccncc3)cc2)no1 [Example 139, 3-(3-(4-(pyridin-4-ylmethoxy)benzyl)isoxazol-5-yl)pyridin-2-amine] | 0.01 to 0.1 µg/mL (≈ 0.0279 to 0.279 µM) | 0.01 to 0.1 µg/mL (≈ 0.0279 to 0.279 µM) | ≤ 0.01 µg/mL | 0.1 to 1 µg/mL | > 1 µg/mL
3 | Nc1ncccc1-c1cc(Cc2ccc(OCc3ccccn3)cc2)no1 [Example 140, 3-(3-(4-(pyridin-2-ylmethoxy)benzyl)isoxazol-5-yl)pyridin-2-amine] | ≤ 0.01 µg/mL | 0.01 to 0.1 µg/mL (≈ 0.0279 to 0.279 µM) | 0.01 to 0.1 µg/mL (≈ 0.0279 to 0.279 µM) | 0.01 to 0.1 µg/mL | 0.1 to 1 µg/mL
4 | Nc1ncccc1-c1cc(Cc2ccc(OCc3ccccc3F)cc2)no1 [Example 141, 3-(3-(4-((2-fluorobenzyl)oxy)benzyl)isoxazol-5-yl)pyridin-2-amine] | 0.01 to 0.1 µg/mL (≈ 0.0266 to 0.266 µM) | 0.01 to 0.1 µg/mL (≈ 0.0266 to 0.266 µM) | 0.01 to 0.1 µg/mL (≈ 0.0266 to 0.266 µM) | 0.01 to 0.1 µg/mL | 0.1 to 1 µg/mL
5 | Nc1ncccc1-c1cc(Cc2ccc(Oc3ccccc3)nc2)no1 [Example 143, 3-(3-((6-phenoxypyridin-3-yl)methyl)isoxazol-5-yl)pyridin-2-amine] | 0.1 to 1 µg/mL (≈ 0.29 to 2.9 µM) | 0.01 to 0.1 µg/mL (≈ 0.029 to 0.29 µM) | ≤ 0.01 µg/mL | 0.01 to 0.1 µg/mL | 0.1 to 1 µg/mL
6 | Nc1ncccc1-c1cc(Cc2ccc(Nc3ccccc3)cc2)no1 [Example 144, 3-(3-(4-(phenylamino)benzyl)isoxazol-5-yl)pyridin-2-amine] | 0.01 to 0.1 µg/mL (≈ 0.0292 to 0.292 µM) | 0.01 to 0.1 µg/mL (≈ 0.0292 to 0.292 µM) | 0.01 to 0.1 µg/mL (≈ 0.0292 to 0.292 µM) | 0.01 to 0.1 µg/mL | 0.1 to 1 µg/mL
7 | Nc1ncccc1-c1cc(Cc2ccnc(OCCc3cccc(F)c3)c2)no1 [Example 146, 3-(3-((2-(3-fluorophenethoxy)pyridin-4-yl)methyl)isoxazol-5-yl)pyridin-2-amine] | 0.1 to 1 µg/mL (≈ 0.256 to 2.56 µM) | 0.1 to 1 µg/mL (≈ 0.256 to 2.56 µM) | 0.1 to 1 µg/mL (≈ 0.256 to 2.56 µM) | > 1 µg/mL | > 1 µg/mL
8 | Nc1ncccc1-c1cc(Cc2ccnc(OCc3ccccc3)c2)no1 [Example 148, 3-(3-((2-(benzyloxy)pyridin-4-yl)methyl)isoxazol-5-yl)pyridin-2-amine] | 0.01 to 0.1 µg/mL (≈ 0.0279 to 0.279 µM) | 0.01 to 0.1 µg/mL (≈ 0.0279 to 0.279 µM) | 0.01 to 0.1 µg/mL (≈ 0.0279 to 0.279 µM) | 0.01 to 0.1 µg/mL | 0.1 to 1 µg/mL
9 | Cc1c(OCC(F)(F)F)ccnc1COc1ccc(Cc2cc(-c3cccnc3N)on2)cn1 [compound 217, 3-(3-((6-((3-methyl-4-(2,2,2-trifluoroethoxy)pyridin-2-yl)methoxy)pyridin-3-yl)methyl)isoxazol-5-yl)pyridin-2-amine] | > 1 µg/mL | > 1 µg/mL | > 1 µg/mL | > 1 µg/mL | –
10 | Nc1ncccc1-c1cc(Cc2ccc(OCc3cc(Cl)nc(Cl)c3)nc2)no1 [compound 219, 3-(3-((6-((2,6-dichloropyridin-4-yl)methoxy)pyridin-3-yl)methyl)isoxazol-5-yl)pyridin-2-amine] | > 1 µg/mL | > 1 µg/mL | > 1 µg/mL | 0.1 to 1 µg/mL | –
11 | Nc1ncccc1-c1cc(Cc2ccc(/C=C/c3cccc(F)c3)cc2)no1 [compound 233, (E)-3-(3-(4-(3-fluorostyryl)benzyl)isoxazol-5-yl)pyridin-2-amine] | > 1 µg/mL | > 1 µg/mL | > 1 µg/mL | 0.1 to 1 µg/mL | –
12 | Nc1ncccc1-c1cc(Cc2ccc(Nc3cc(F)cc(F)c3)nc2)no1 [compound 238, 5-((5-(2-aminopyridin-3-yl)isoxazol-3-yl)methyl)-N-(3,5-difluorophenyl)pyridin-2-amine] | > 1 µg/mL | 0.1 to 1 µg/mL (≈ 0.264 to 2.64 µM) | 0.1 to 1 µg/mL (≈ 0.264 to 2.64 µM) | > 1 µg/mL | –

Second part, led by results:

Row | MIC (Candida albicans 90028) | MIC [1] | MIC (Cryptococcus gattii) | Structure (SMILES) | minimal effective concentration [2] | minimal effective concentration [3]
13 | 0.01 to 0.1 µg/mL (≈ 0.0294 to 0.294 µM) | 0.1 to 1 µg/mL (≈ 0.294 to 2.94 µM) | > 1 µg/mL | Nc1ncccc1-c1cc(Cc2cnc(OCC3CC3)c(F)c2)no1 [compound 247, 3-(3-((6-(cyclopropylmethoxy)-5-fluoropyridin-3-yl)methyl)isoxazol-5-yl)pyridin-2-amine] | 0.01 to 0.1 µg/mL | –
14 | > 1 µg/mL | > 1 µg/mL | > 1 µg/mL | Nc1ncccc1-c1cc(Cc2cnc(Oc3cc(F)cc(F)c3)nc2)no1 [compound 248, 3-(3-((2-(3,5-difluorophenoxy)pyrimidin-5-yl)methyl)isoxazol-5-yl)pyridin-2-amine] | 0.1 to 1 µg/mL | –
15 | 0.1 to 1 µg/mL (≈ 0.265 to 2.65 µM) | 0.1 to 1 µg/mL (≈ 0.265 to 2.65 µM) | > 1 µg/mL | Nc1ncccc1-c1cc(Cc2cnc(OCc3cccc(F)c3)nc2)no1 [compound 249, 3-(3-((2-((3-fluorobenzyl)oxy)pyrimidin-5-yl)methyl)isoxazol-5-yl)pyridin-2-amine] | 0.01 to 0.1 µg/mL | –
16 | 0.1 to 1 µg/mL (≈ 0.254 to 2.54 µM) | 0.1 to 1 µg/mL (≈ 0.254 to 2.54 µM) | 0.1 to 1 µg/mL (≈ 0.254 to 2.54 µM) | Nc1ncccc1-c1cc(Cc2cnc(OCc3cccc(F)c3)c(F)c2)no1 [compound 251, 3-(3-((5-fluoro-6-((3-fluorobenzyl)oxy)pyridin-3-yl)methyl)isoxazol-5-yl)pyridin-2-amine] | 0.01 to 0.1 µg/mL | –
17 | 0.1 to 1 µg/mL (≈ 0.251 to 2.51 µM) | 0.1 to 1 µg/mL (≈ 0.251 to 2.51 µM) | 0.1 to 1 µg/mL (≈ 0.251 to 2.51 µM) | Nc1ncccc1-c1cc(Cc2cnc(Oc3cc(F)cc(F)c3)c(F)c2)no1 [compound 252, 3-(3-((6-(3,5-difluorophenoxy)-5-fluoropyridin-3-yl)methyl)isoxazol-5-yl)pyridin-2-amine] | 0.1 to 1 µg/mL | –
18 | 0.01 to 0.1 µg/mL (≈ 0.0263 to 0.263 µM) | 0.1 to 1 µg/mL (≈ 0.263 to 2.63 µM) | > 1 µg/mL | Nc1ncccc1-c1cc(Cc2cnc(Oc3ccccc3F)c(F)c2)no1 [compound 254, 3-(3-((5-fluoro-6-(2-fluorophenoxy)pyridin-3-yl)methyl)isoxazol-5-yl)pyridin-2-amine] | 0.01 to 0.1 µg/mL | –
19 | 0.01 to 0.1 µg/mL (≈ 0.0276 to 0.276 µM) | 0.1 to 1 µg/mL (≈ 0.276 to 2.76 µM) | > 1 µg/mL | Nc1ncccc1-c1cc(Cc2cnc(Oc3ccccc3)c(F)c2)no1 [compound 255, 3-(3-((5-fluoro-6-phenoxypyridin-3-yl)methyl)isoxazol-5-yl)pyridin-2-amine] | 0.01 to 0.1 µg/mL | –
20 | 0.01 to 0.1 µg/mL (≈ 0.0263 to 0.263 µM) | 0.1 to 1 µg/mL (≈ 0.263 to 2.63 µM) | > 1 µg/mL | Nc1ncccc1-c1cc(Cc2cnc(Oc3cccc(F)c3)c(F)c2)no1 [compound 256, 3-(3-((5-fluoro-6-(3-fluorophenoxy)pyridin-3-yl)methyl)isoxazol-5-yl)pyridin-2-amine] | 0.1 to 1 µg/mL | –
21 | > 1 µg/mL | 0.1 to 1 µg/mL (≈ 0.275 to 2.75 µM) | > 1 µg/mL | Nc1ncccc1-c1cc(Cc2ccc(Oc3ncccn3)c(F)c2)no1 [compound 259, 3-(3-(3-fluoro-4-(pyrimidin-2-yloxy)benzyl)isoxazol-5-yl)pyridin-2-amine] | 0.01 to 0.1 µg/mL | –
22 | 0.1 to 1 µg/mL (≈ 0.254 to 2.54 µM) | 0.1 to 1 µg/mL (≈ 0.254 to 2.54 µM) | > 1 µg/mL | Nc1ncccc1-c1cc(Cc2cnc(OCc3ccccc3F)c(F)c2)no1 [compound 260, 3-(3-((5-fluoro-6-((2-fluorobenzyl)oxy)pyridin-3-yl)methyl)isoxazol-5-yl)pyridin-2-amine] | 0.1 to 1 µg/mL | –
